Where two headings read alike, the source gives them in different places.
Legend:
recombinant Nampt [1] = target: T1, recombinant Nampt (Homo sapiens, UniProt P43490); details: cited from earlier work
recombinant Nampt [2] = target: T1, recombinant Nampt; assay: Recombinant Nampt inhibition assay; format: biochemical; details: read-out: IC50, inhibition of recombinant Nampt activity; colorimetric assay
184A1 = assay: MTT assay, 184A1 cells, 72 h; format: cell-based; details: read-out: IC50 (nM) ± SD (n) 184A1, 184A1 noncancerous Nampt-dependent human breast epithelium cells, n=4
[3] = continuous intravenous infusion for 4 consecutive days, patients; cited from earlier work

T1 sequence (P43490 whole entry): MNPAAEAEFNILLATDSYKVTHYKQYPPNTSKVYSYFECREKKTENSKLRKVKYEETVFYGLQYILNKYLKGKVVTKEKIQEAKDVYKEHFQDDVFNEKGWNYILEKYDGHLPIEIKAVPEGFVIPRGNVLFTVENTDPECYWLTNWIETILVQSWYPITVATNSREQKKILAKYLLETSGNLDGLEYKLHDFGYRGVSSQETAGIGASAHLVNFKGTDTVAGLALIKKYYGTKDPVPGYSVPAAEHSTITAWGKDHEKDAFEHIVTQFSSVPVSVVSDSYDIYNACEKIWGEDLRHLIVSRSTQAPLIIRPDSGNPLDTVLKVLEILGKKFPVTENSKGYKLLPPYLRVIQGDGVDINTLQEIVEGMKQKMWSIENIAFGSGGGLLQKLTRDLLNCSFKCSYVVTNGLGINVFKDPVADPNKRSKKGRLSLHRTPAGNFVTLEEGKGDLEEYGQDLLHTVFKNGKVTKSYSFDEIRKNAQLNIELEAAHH

In the case of “1-(4′-(trans-3″-(3‴-pyridyl)acrylamido)butyl)-1,7-dicarbadodecaborane [MC4-PPEA]”, the IC50 (recombinant Nampt [1]; read-out: IC50, inhibition of Nampt, previously reported) is given as 4.2 nM and the “fold higher Nampt inhibitory activity than FK866” value (recombinant Nampt [1]; relative to FK866) is given as ~ 100 fold.

In the case of “1-(hydroxymethyl)-7-(4′-(trans-3″-(3′″-pyridyl)acrylamido)butyl)-1,7-dicarbadodecaborane [hm-MC4-PPEA]”, the IC50 (recombinant Nampt [2]) is reported as 6.8 nM and the IC50 (184A1) is reported as 1.9 ± 0.4 nM.

In the case of `O=C(/C=C/c1cccnc1)NCCCCC1CCN(C(=O)c2ccccc2)CC1` [FK866], the dose-limiting toxicity [3] is listed as “thrombocytopenia”.
